What was measured:
Assay in all cases: Weeding effect in post-emergence stage
Type in all cases: in vivo
Conditions in all cases: 250 g/ha; 2 leaf stage; 15 days after application; fresh weight control rate
Abutilon theophrasti = test system: Abutilon theophrasti
In short: (§1)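 Two-leaf-stage pot plants, spray-tower application at 500/250/125/60/30/15 g/ha with methyl oleate EC synergist; fresh weight control level (0–5) read at 15 days post-treatment, three replicates averaged.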

Echinochloa crusgali = test system: Echinochloa crusgali
In short: as §1

Setaria viridis = test system: Setaria viridis
In short: as §1

Digitaria sanguinalis = test system: Digitaria sanguinalis
In short: as §1

Amaranthus retroflexus = test system: Amaranthus retroflexus
In short: as §1

## CCC[S@@+]([O-])c1c(C(F)(F)F)ccc(C(=O)Nc2nnc(C(C)C)o2)c1F [Compound 359]
Abutilon theophrasti
  weeding effect in post-emergence stage, activity level (growth control rate), Abutilon theophrasti: 5 (Level 5: growth control rate is above 85%)
Echinochloa crusgali
  weeding effect in post-emergence stage, activity level (growth control rate), Echinochloa crusgali: 5 (Level 5: growth control rate is above 85%)
Setaria viridis
  weeding effect in post-emergence stage, activity level (growth control rate), Setaria viridis: 5 (Level 5: growth control rate is above 85%)
Digitaria sanguinalis
  weeding effect in post-emergence stage, activity level (growth control rate), Digitaria sanguinalis: 5 (Level 5: growth control rate is above 85%)
Amaranthus retroflexus
  weeding effect in post-emergence stage, activity level (growth control rate), Amaranthus retroflexus: 5 (Level 5: growth control rate is above 85%)

## COc1c(C(=O)Nc2nnc(C)o2)ccc(C(F)(F)F)c1[S@+]([O-])CCC(C)(C)C [Compound 309]
Abutilon theophrasti
  weeding effect in post-emergence stage, activity level (growth control rate), Abutilon theophrasti: 5 (Level 5: growth control rate is above 85%)
Echinochloa crusgali
  weeding effect in post-emergence stage, activity level (growth control rate), Echinochloa crusgali: 5 (Level 5: growth control rate is above 85%)
Setaria viridis
  weeding effect in post-emergence stage, activity level (growth control rate), Setaria viridis: 5 (Level 5: growth control rate is above 85%)
Digitaria sanguinalis
  weeding effect in post-emergence stage, activity level (growth control rate), Digitaria sanguinalis: 5 (Level 5: growth control rate is above 85%)
Amaranthus retroflexus
  weeding effect in post-emergence stage, activity level (growth control rate), Amaranthus retroflexus: 5 (Level 5: growth control rate is above 85%)

## COCCC[S@@+]([O-])c1c(C(F)(F)F)ccc(C(=O)Nc2nnc(C)o2)c1OC [Compound 345]
Abutilon theophrasti
  weeding effect in post-emergence stage, activity level (growth control rate), Abutilon theophrasti: 5 (Level 5: growth control rate is above 85%)
Echinochloa crusgali
  weeding effect in post-emergence stage, activity level (growth control rate), Echinochloa crusgali: 5 (Level 5: growth control rate is above 85%)
Setaria viridis
  weeding effect in post-emergence stage, activity level (growth control rate), Setaria viridis: 5 (Level 5: growth control rate is above 85%)
Digitaria sanguinalis
  weeding effect in post-emergence stage, activity level (growth control rate), Digitaria sanguinalis: 5 (Level 5: growth control rate is above 85%)
Amaranthus retroflexus
  weeding effect in post-emergence stage, activity level (growth control rate), Amaranthus retroflexus: 5 (Level 5: growth control rate is above 85%)

## CSCC[S@@+]([O-])c1c(C(F)(F)F)ccc(C(=O)Nc2nnc(C)o2)c1F [Compound 204]
Abutilon theophrasti
  weeding effect in post-emergence stage, activity level (growth control rate), Abutilon theophrasti: 5 (Level 5: growth control rate is above 85%)
Echinochloa crusgali
  weeding effect in post-emergence stage, activity level (growth control rate), Echinochloa crusgali: 5 (Level 5: growth control rate is above 85%)
Setaria viridis
  weeding effect in post-emergence stage, activity level (growth control rate), Setaria viridis: 5 (Level 5: growth control rate is above 85%)
Digitaria sanguinalis
  weeding effect in post-emergence stage, activity level (growth control rate), Digitaria sanguinalis: 5 (Level 5: growth control rate is above 85%)
Amaranthus retroflexus
  weeding effect in post-emergence stage, activity level (growth control rate), Amaranthus retroflexus: 5 (Level 5: growth control rate is above 85%)

## Cc1nnc(NC(=O)c2ccc(C(F)(F)F)c([S@+]([O-])C(C)(C)C)c2F)o1 [Compound 7]
Abutilon theophrasti
  weeding effect in post-emergence stage, activity level (growth control rate), Abutilon theophrasti: 5 (Level 5: growth control rate is above 85%)
Echinochloa crusgali
  weeding effect in post-emergence stage, activity level (growth control rate), Echinochloa crusgali: 5 (Level 5: growth control rate is above 85%)
Setaria viridis
  weeding effect in post-emergence stage, activity level (growth control rate), Setaria viridis: 4 (Level 4: growth control rate is greater than or equal to 60% and less than 85%)
Digitaria sanguinalis
  weeding effect in post-emergence stage, activity level (growth control rate), Digitaria sanguinalis: 4 (Level 4: growth control rate is greater than or equal to 60% and less than 85%)
Amaranthus retroflexus
  weeding effect in post-emergence stage, activity level (growth control rate), Amaranthus retroflexus: 5 (Level 5: growth control rate is above 85%)

## CSc1c(C(=O)Nc2nnc(C)o2)ccc(C(F)(F)F)c1[S@+]([O-])CCF [Compound 555]
Abutilon theophrasti
  weeding effect in post-emergence stage, activity level (growth control rate), Abutilon theophrasti: 5 (Level 5: growth control rate is above 85%)
Echinochloa crusgali
  weeding effect in post-emergence stage, activity level (growth control rate), Echinochloa crusgali: 5 (Level 5: growth control rate is above 85%)
Setaria viridis
  weeding effect in post-emergence stage, activity level (growth control rate), Setaria viridis: 5 (Level 5: growth control rate is above 85%)
Digitaria sanguinalis
  weeding effect in post-emergence stage, activity level (growth control rate), Digitaria sanguinalis: 5 (Level 5: growth control rate is above 85%)
Amaranthus retroflexus
  weeding effect in post-emergence stage, activity level (growth control rate), Amaranthus retroflexus: 5 (Level 5: growth control rate is above 85%)

## CCOCC[S@@+]([O-])c1c(C(F)(F)F)ccc(C(=O)Nc2nnc(C)o2)c1F [Compound 73]
Abutilon theophrasti
  weeding effect in post-emergence stage, activity level (growth control rate), Abutilon theophrasti: 5 (Level 5: growth control rate is above 85%)
Echinochloa crusgali
  weeding effect in post-emergence stage, activity level (growth control rate), Echinochloa crusgali: 5 (Level 5: growth control rate is above 85%)
Setaria viridis
  weeding effect in post-emergence stage, activity level (growth control rate), Setaria viridis: 5 (Level 5: growth control rate is above 85%)
Digitaria sanguinalis
  weeding effect in post-emergence stage, activity level (growth control rate), Digitaria sanguinalis: 5 (Level 5: growth control rate is above 85%)
Amaranthus retroflexus
  weeding effect in post-emergence stage, activity level (growth control rate), Amaranthus retroflexus: 5 (Level 5: growth control rate is above 85%)

## CCC(C)[S@@+]([O-])c1c(C(F)(F)F)ccc(C(=O)Nc2nnco2)c1F (some centres unmarked) [Compound 576]
Abutilon theophrasti
  weeding effect in post-emergence stage, activity level (growth control rate), Abutilon theophrasti: 5 (Level 5: growth control rate is above 85%)
Echinochloa crusgali
  weeding effect in post-emergence stage, activity level (growth control rate), Echinochloa crusgali: 5 (Level 5: growth control rate is above 85%)
Setaria viridis
  weeding effect in post-emergence stage, activity level (growth control rate), Setaria viridis: 5 (Level 5: growth control rate is above 85%)
Digitaria sanguinalis
  weeding effect in post-emergence stage, activity level (growth control rate), Digitaria sanguinalis: 5 (Level 5: growth control rate is above 85%)
Amaranthus retroflexus
  weeding effect in post-emergence stage, activity level (growth control rate), Amaranthus retroflexus: 5 (Level 5: growth control rate is above 85%)

## COc1c(C(=O)Nc2nnc(C)o2)ccc(C(F)(F)F)c1[S@+]([O-])CC(F)(F)F [Compound 324]
Abutilon theophrasti
  weeding effect in post-emergence stage, activity level (growth control rate), Abutilon theophrasti: 5 (Level 5: growth control rate is above 85%)
Echinochloa crusgali
  weeding effect in post-emergence stage, activity level (growth control rate), Echinochloa crusgali: 5 (Level 5: growth control rate is above 85%)
Setaria viridis
  weeding effect in post-emergence stage, activity level (growth control rate), Setaria viridis: 5 (Level 5: growth control rate is above 85%)
Digitaria sanguinalis
  weeding effect in post-emergence stage, activity level (growth control rate), Digitaria sanguinalis: 5 (Level 5: growth control rate is above 85%)
Amaranthus retroflexus
  weeding effect in post-emergence stage, activity level (growth control rate), Amaranthus retroflexus: 5 (Level 5: growth control rate is above 85%)

## C=CCC[S@@+]([O-])c1c(C(F)(F)F)ccc(C(=O)Nc2nnc(C)o2)c1OC [Compound 312]
Abutilon theophrasti
  weeding effect in post-emergence stage, activity level (growth control rate), Abutilon theophrasti: 5 (Level 5: growth control rate is above 85%)
Echinochloa crusgali
  weeding effect in post-emergence stage, activity level (growth control rate), Echinochloa crusgali: 5 (Level 5: growth control rate is above 85%)
Setaria viridis
  weeding effect in post-emergence stage, activity level (growth control rate), Setaria viridis: 5 (Level 5: growth control rate is above 85%)
Digitaria sanguinalis
  weeding effect in post-emergence stage, activity level (growth control rate), Digitaria sanguinalis: 5 (Level 5: growth control rate is above 85%)
Amaranthus retroflexus
  weeding effect in post-emergence stage, activity level (growth control rate), Amaranthus retroflexus: 5 (Level 5: growth control rate is above 85%)

## CC[S@@+]([O-])c1c(C(F)(F)F)ccc(C(=O)Nc2nnnn2C)c1OC [Compound 445]
Abutilon theophrasti
  weeding effect in post-emergence stage, activity level (growth control rate), Abutilon theophrasti: 5 (Level 5: growth control rate is above 85%)
Echinochloa crusgali
  weeding effect in post-emergence stage, activity level (growth control rate), Echinochloa crusgali: 5 (Level 5: growth control rate is above 85%)
Setaria viridis
  weeding effect in post-emergence stage, activity level (growth control rate), Setaria viridis: 5 (Level 5: growth control rate is above 85%)
Digitaria sanguinalis
  weeding effect in post-emergence stage, activity level (growth control rate), Digitaria sanguinalis: 5 (Level 5: growth control rate is above 85%)
Amaranthus retroflexus
  weeding effect in post-emergence stage, activity level (growth control rate), Amaranthus retroflexus: 5 (Level 5: growth control rate is above 85%)

## CCC[S@@+]([O-])c1c(C(F)(F)F)ccc(C(=O)Nc2nnc(C)o2)c1OC(C)C [Compound 534]
Abutilon theophrasti
  weeding effect in post-emergence stage, activity level (growth control rate), Abutilon theophrasti: 5 (Level 5: growth control rate is above 85%)
Echinochloa crusgali
  weeding effect in post-emergence stage, activity level (growth control rate), Echinochloa crusgali: 5 (Level 5: growth control rate is above 85%)
Setaria viridis
  weeding effect in post-emergence stage, activity level (growth control rate), Setaria viridis: 5 (Level 5: growth control rate is above 85%)
Digitaria sanguinalis
  weeding effect in post-emergence stage, activity level (growth control rate), Digitaria sanguinalis: 5 (Level 5: growth control rate is above 85%)
Amaranthus retroflexus
  weeding effect in post-emergence stage, activity level (growth control rate), Amaranthus retroflexus: 5 (Level 5: growth control rate is above 85%)

## CSc1c(C(=O)Nc2nnc(C)o2)ccc(C(F)(F)F)c1[S@+]([O-])CC(F)F [Compound 558]
Abutilon theophrasti
  weeding effect in post-emergence stage, activity level (growth control rate), Abutilon theophrasti: 5 (Level 5: growth control rate is above 85%)
Echinochloa crusgali
  weeding effect in post-emergence stage, activity level (growth control rate), Echinochloa crusgali: 5 (Level 5: growth control rate is above 85%)
Setaria viridis
  weeding effect in post-emergence stage, activity level (growth control rate), Setaria viridis: 5 (Level 5: growth control rate is above 85%)
Digitaria sanguinalis
  weeding effect in post-emergence stage, activity level (growth control rate), Digitaria sanguinalis: 5 (Level 5: growth control rate is above 85%)
Amaranthus retroflexus
  weeding effect in post-emergence stage, activity level (growth control rate), Amaranthus retroflexus: 5 (Level 5: growth control rate is above 85%)

## COc1c(C(=O)Nc2nnc(C)o2)ccc(C(F)(F)F)c1[S@+]([O-])CCCC(F)(F)F [Compound 326]
Abutilon theophrasti
  weeding effect in post-emergence stage, activity level (growth control rate), Abutilon theophrasti: 5 (Level 5: growth control rate is above 85%)
Echinochloa crusgali
  weeding effect in post-emergence stage, activity level (growth control rate), Echinochloa crusgali: 5 (Level 5: growth control rate is above 85%)
Setaria viridis
  weeding effect in post-emergence stage, activity level (growth control rate), Setaria viridis: 5 (Level 5: growth control rate is above 85%)
Digitaria sanguinalis
  weeding effect in post-emergence stage, activity level (growth control rate), Digitaria sanguinalis: 5 (Level 5: growth control rate is above 85%)
Amaranthus retroflexus
  weeding effect in post-emergence stage, activity level (growth control rate), Amaranthus retroflexus: 5 (Level 5: growth control rate is above 85%)

## CCCOc1c(C(=O)Nc2nnc(C)o2)ccc(C(F)(F)F)c1[S@+]([O-])CCC [Compound 533]
Abutilon theophrasti
  weeding effect in post-emergence stage, activity level (growth control rate), Abutilon theophrasti: 5 (Level 5: growth control rate is above 85%)
Echinochloa crusgali
  weeding effect in post-emergence stage, activity level (growth control rate), Echinochloa crusgali: 5 (Level 5: growth control rate is above 85%)
Setaria viridis
  weeding effect in post-emergence stage, activity level (growth control rate), Setaria viridis: 5 (Level 5: growth control rate is above 85%)
Digitaria sanguinalis
  weeding effect in post-emergence stage, activity level (growth control rate), Digitaria sanguinalis: 5 (Level 5: growth control rate is above 85%)
Amaranthus retroflexus
  weeding effect in post-emergence stage, activity level (growth control rate), Amaranthus retroflexus: 5 (Level 5: growth control rate is above 85%)

## COC(C)[S+]([O-])c1c(C(F)(F)F)ccc(C(=O)Nc2nnc(C)o2)c1F (centres unmarked) [Compound 71]
Abutilon theophrasti
  weeding effect in post-emergence stage, activity level (growth control rate), Abutilon theophrasti: 5 (Level 5: growth control rate is above 85%)
Echinochloa crusgali
  weeding effect in post-emergence stage, activity level (growth control rate), Echinochloa crusgali: 5 (Level 5: growth control rate is above 85%)
Setaria viridis
  weeding effect in post-emergence stage, activity level (growth control rate), Setaria viridis: 5 (Level 5: growth control rate is above 85%)
Digitaria sanguinalis
  weeding effect in post-emergence stage, activity level (growth control rate), Digitaria sanguinalis: 5 (Level 5: growth control rate is above 85%)
Amaranthus retroflexus
  weeding effect in post-emergence stage, activity level (growth control rate), Amaranthus retroflexus: 5 (Level 5: growth control rate is above 85%)

— patent US12643871B2, “Aryl formamide compound containing chiral sulfur oxide or salt thereof, preparation method, herbicidal composition and use thereof” (Qingdao Kingagroot Chemical Compound Co., Ltd., priority 2019, dated 2026)
